Assay results: patent publication US7189505B2, “Methods of assessing HIV integrase inhibitor therapy” (Tibotec BVBA, priority 2001, dated 2007)

What was measured:
Assay type in all cases: cell-based, HIV-1
[1] = test system: recombinant virus generated from HXB2D site-directed mutant virus, integrase T66I/M154I mutations; experiment: Antiviral experiment with recombinant virus from site-directed mutant virus, T66I/M154I; settings: versus wild type, MT4-LTR-EGFP cells
Protocol: (§1) The integrase encoding sequence was amplified from either wildtype HIV-1 (IIIB) or NL4.3 virus, or HXB2D site-directed mutant viruses containing mutations in integrase (such as T66I, S153Y, M154I, or combinations thereof) (Hazuda et al., Science 2000, 287, 646–650), or patient samples. Starting from RNA, extracted from virus supernatant or plasma using the QIAamp® viral RNA extraction kit (Qiagen), cDNA was synthesized by reverse transcription (Expand™ reverse transcriptase, 30 min at 42° C.) with the primer 3′EGINT10 (SEQ ID NO 11), followed by a nested PCR. […]
(§2) Recombinant virus was produced by co-transfection by electroporation of the SmaI-linearized IN-deletion construct and the integrase amplicon into MT4 cells or MT4 cells equipped with an LTR driven reporter gene construct. Production of recombinant virus was evaluated by scoring the cytopathogenic effect (CPE) that is induced by HIV-infection of MT4 cells or by the LTR-driven reporter signal induced by HIV infection in MT4 reporter cells. […]

[2] = test system: recombinant virus generated from HXB2D site-directed mutant virus, integrase T66I/S153Y mutations; experiment: Antiviral experiment with recombinant virus from site-directed mutant virus, T66I/S153Y; settings: versus wild type, MT4-LTR-EGFP cells
Protocol: as §1, §2

[3] = test system: recombinant virus generated from HXB2D site-directed mutant virus, integrase S153Y; experiment: Antiviral experiment with recombinant virus from site-directed mutant virus, S153Y; settings: S153Y mutation in integrase; versus wild type; MT4-LTR-EGFP cells
Protocol: as §1, §2

[4] = test system: recombinant virus generated from HXB2D site-directed mutant virus, integrase T66I mutation; experiment: Antiviral experiment with recombinant virus from site-directed mutant virus, T66I; settings: versus wild type, MT4-LTR-EGFP cells
Protocol: as §1, §2

[5] = test system: recombinant virus generated from HXB2D site-directed mutant virus, integrase M154I mutation; experiment: Antiviral experiment with recombinant virus from site-directed mutant virus, M154I; settings: versus wild type, MT4-LTR-EGFP cells
Protocol: as §1, §2

For `CC(C)Oc1ccc(Cc2ccccc2)cc1C(=O)CC(=O)C(=O)O` [compound 4, 2-(1-methylethyloxy)-, -dioxo-5-(phenylmethyl)-benzenebutanoic acid], the “fold increase in EC50” value [1] was 10 fold, the “fold increase in EC50” value [2] was 10 fold and the “fold increase in EC50” value [3] was 5 fold. The “fold increase in EC50” value [4] was 2 fold and the “fold increase in EC50” value [5] was 3 fold.
